Data reported in patent publication US10149836B2, “Isoxazole treatments for frontotemporal dementia” (The Board of Regents of the University of Texas System, priority 2014, dated 2018).

Tests used:
[1] = tested on: progranulin promoter; test: Luciferase reporter assay in Neuro2A #48 cells (human GRN start codon fused to firefly luciferase); assay type: cell-based, mouse; conditions: for Luciferase activity over DMSO control: Neuro2A #48 cells, 24 hrs after compound addition, increasing concentrations
Method: Plasmids and Cell Lines. The firefly luciferase coding sequence was fused by bacterial recombination to the authentic human GRN start codon in exon 2 (NM_002087.2) on a bacterial artificial chromosome (BACPAC RP11-812N09), and stably transfected Neuro-2a cells were derived.
Library Screening and Luciferase Reporter Assays. Neuro-2a cells were assayed in 384-well plates (3000 cells/well). 6 hrs after cell plating, 1200 Prestwick Chemical Library® compounds in DMSO, including internal controls, were dispensed using a BioMek FX system to final concentrations of 2.5 μM compound and 1% DMSO (unless indicated otherwise). Sodium butyrate (9 mM) was used as a positive control on each plate for initial screening. Luciferase activity was measured 24 hr after compound addition using Bright-Glo™ reagent (20 μl/well; Promega). Each well was normalized to the average luminescence from DMSO-treated wells on the same plate.
Technical details of HTS screen. Cell type used: Neuro-2a #48 cell line was cultured in DMEM (High glucose)/10%FBS/Pen-Strep/Zeocin (200 μg/mL) and plated in same media without Zeocin. All media is sterile filtered before use. The firefly luciferase coding sequence was fused by bacterial recombination to the authentic human GRN start codon in exon 2 (NM_002087.2) on a bacterial artificial chromosome (BACPAC RP11-812N09), and stably transfected Neuro-2a cells were derived (Cenik et al., 2011). Cells are put into single cell suspension and strained with 70 μm cell strainers before counting. The concentration of cells is adjusted to 150,000 cells/ml.
384 well plates were used for the assay: 50 μL of the cell suspension are added to each well for a final cell number per well of 7,500. Plates are spun down after plating and incubated at 37° C. under 5% CO2. Compound addition takes place 4 hours after plating. Test compounds are in columns 3-22. The vehicle control wells are in columns 2 and 23. The positive control, SAHA (3 μM), is plated in column 1 An untreated control (no DMSO) is in column 24. The plates are assayed for reporter activity 24 hrs after compound addition. All media is spun out of the plates and 20 μL of bright glo is added to each well and placed on shaker for 3-5 minutes. After shaking, plates are read and check from increases in activation over DMSO. Vehicle (DMSO) was used for baseline because it causes a slight activation of luciferase construct. […] All compounds were added from DMSO stocks and added at 0.5 μL per well (1% DMSO). All plates are read on an EnVision multilabel plate reader in luminescence mode. The data is then parsed into GeneData Screener v11 and quality controlled visually. Z′ values are calculated using the DMSO and SAHA controls. Plates that have a Z′ value less than 0.45 are further scrutinized. If the latter show systematic effects or if known errors occurred in these plates, they are repeated in a separate experiment. Data are then normalized and analyzed as previously described (Kim et al., 2013).

[2] = tested on: progranulin (PGRN); test: Progranulin (PGRN) protein expression in Neuro2a whole cell lysates by immunoblotting; assay type: cell-based, mouse; conditions: Neuro2a cells, 48 hours; for PGRN levels compared to DMSO: highest concentrations, N=4; for progranulin protein levels by immunoblotting: increasing doses, whole cell lysates
Method: FIG. 6. Protein analysis using immuoblotting. Neuro2a cells were treated with in increasing doses for 48 hours and whole cell lysates were analyzed for progranulin (PGRN) protein expression using immunobloting. N=4.
FIG. 7. Graphical analysis of protein quantification using immunoblotting. Whole cell lysates were analyzed for progranulin (PGRN) protein expression using immunoblotting and were graphically plotted to show changes in band intensity. PGRN levels doubled compared to DMSO at the highest concentrations. N=4.
Immunoblotting and Quantification. Cells were lysed in radioimmune precipitation assay buffer (50 mM Tris-HCl (pH 7.4), 150 mM NaCl, 1 mM EDTA, 1% Triton X-100, 1% sodium deoxycholate, 0.1% SDS, and Roche Complete protease inhibitor mixture) and cleared by centrifugation at 20,000×g for 10 min. 0.5-ml cell culture supernatants containing 1% FBS were concentrated by centrifugation at 14,000×g for 50 min in Millipore Amicon Ultra devices (3-kDa cutoff). 15-20 μg of total protein was separated by SDS-PAGE and transferred to nitrocellulose membranes. Membranes were blocked in 5% milk for 1 hr and probed overnight with primary antibodies at 4° C. Mouse progranulin was detected with linker-3 anti-progranulin antibody at 1:5000 dilution, β-actin with anti-β-actin antibody (Sigma A2228) at 1:5000 dilution, human progranulin with anti-PC cell-derived growth factor antibody (Invitrogen) at 1:1000 dilution, and GAPDH with anti-GAPDH antibody (Sigma) at 1:10,000 dilution. Bound IgG was detected by ECL. For quantitative immunoblotting, secondary antibodies labeled with IRDye® infrared dyes and an Odyssey® infrared imager (LI-COR Biosciences) were used following the manufacturer's instructions.

[3] = tested on: Progranulin MEF cells; test: Lysosome rescue (lysotracker) in Progranulin MEF cells; assay type: cell-based, mouse; conditions: one concentration, one trial
Method: FIGS. 8A-8F. Dose Tested for Lysosome Rescue. Progranulin MEF cells were treated with 1 concentration each of C15 and C19 and levels of lysotracker were analyzed to look for reduction of lysosome levels back to wild type levels. The stained area per cell is measured for compound C15 (FIG. 8A) and C19 (FIG. 8B), area intensity for compound C15 (FIG. 8C) and C19 (FIG. 8D), and total number of lysosomes for compound C15 (FIG. 8E) and C19 (FIG. 8F).
Progranulin MEF cells were treated with one aliquot each of C15 and C19 and levels of lysotracker were analyzed to look for reduction of lysosome levels back to wild type levels.

[4] = tested on: Progranulin; test: Progranulin protein expression in primary rat neurons (immunoblot, densitometric quantitation); assay type: cell-based; conditions: 24 hours, two concentrations
Method: FIGS. 1A-B. Neuro2A #48 cells show a marked increase in Progranulin levels due to Isoxazole treatment after 24 hours. (FIG. 1A) Cells were treated with Isoxazole in increasing concentrations ranging from 10 nM to 25 μM. […] (FIG. 1B) Primary rat neurons were treated for 24 hours with DMSO and two concentrations of Isoxazole to visualize the increase in Progranulin protein expression in the relevant in vivo cell type. […] Lower band: actin control. Bands at ˜75 kDa: Progranulin monomer. HMW bands: Progranulin multimers. Densitometric quantitation is shown on the right.
Immunoblotting and Quantification. […] Mouse progranulin was detected with linker-3 anti-progranulin antibody at 1:5000 dilution, β-actin with anti-β-actin antibody (Sigma A2228) at 1:5000 dilution, human progranulin with anti-PC cell-derived growth factor antibody (Invitrogen) at 1:1000 dilution, and GAPDH with anti-GAPDH antibody (Sigma) at 1:10,000 dilution. Bound IgG was detected by ECL. For quantitative immunoblotting, secondary antibodies labeled with IRDye® infrared dyes and an Odyssey® infrared imager (LI-COR Biosciences) were used following the manufacturer's instructions.

[5] = tested on: progranulin; test: RT PCR of progranulin mRNA and pre-mRNA in Neuro2A cells; assay type: cell-based, mouse; conditions: 48 hours, increasing concentrations
Method: FIG. 2. Neuro2A cells were treated for 48 hours with increasing concentrations of Isoxazole. RT PCR was conducted to measure increases in progranulin mRNA and pre-mRNA (hnRNA before splicing).
RNA Extraction and Quantitative PCR. Cells in 6-well plates were lysed in 500 μl of TRIzol® reagent/well. cDNA was reverse-transcribed with MultiScribe™ (Applied Biosystems). For some experiments, the Quick-RNA MiniPrep system (Zymo Research, Irvine, Calif.) was used to isolate total RNA. Primer sequences were as follows:
Quantitative PCRs (qPCRs; 10 μl) contained 20 ng of cDNA, 150 nM primer, and 5 μl of Fast SYBR Green PCR Master Mix (Applied Biosystems) and were performed in triplicate on an Applied Biosystems PRISM 7500 Fast sequence detection system. Relative mRNA levels were calculated using U36B or cyclophilin Q primers as internal controls.

| SMILES | Luciferase activity over DMSO control [1] | PGRN levels compared to DMSO [2] | progranulin protein levels by immunoblotting [2] | further results |
| --- | --- | --- | --- | --- |
| COc1ccccc1C(=O)NNC1C(=O)Nc2ccccc21 (stereo not shown) [Compound C15] | dose dependent increase in luciferase activity | doubled | increased progranulin protein levels | – |
| CC(C)(C)c1cc2c(c(C(C)(C)C)c1)OC(c1cccc([N+](=O)[O-])c1O)N2 (stereo not shown) [Compound C19] | only a small change | doubled | increased progranulin protein levels | lysosome levels (lysotracker) [3]: marked decrease in lysosome levels |
| c1cnoc1 [Isoxazole] | significant increase over control | – | – | Progranulin protein levels vs DMSO control [4]: significant increase over the DMSO control; progranulin mRNA [5]: significant increases in a dose dependent manner; progranulin pre-mRNA (hnRNA before splicing) [5]: significant increases in a dose dependent manner |
| O=C(CCCCCCC(=O)Nc1ccccc1)NO [SAHA, reference compound] | – | – | – | Activation of luciferase reporter relative to base line (DMSO) ([1]; Neuro-2a #48 cells, SAHA 3 μM positive control, 24 hrs): 4-5 times base line |
| CCCCCCCCCCCCC/C=C/[C@@H](O)[C@@H](N)COP(=O)([O-])OCC[N+](C)(C)C [sphingosinephosphorylcholine, reference compound] | increasing levels of luciferase activity over DMSO control | – | – | – |
